Experimental data: ChEMBL document CHEMBL1150193, “Euglobal T1, a New Euglobal from Eucalyptus tereticornis” (J Nat Prod, 1991)
The source made the active and inactive calls. The calls are words filed in the database; no cut-off is given here.

Tested on: human gammaherpesvirus 4
Test: Inhibition of Epstein-Barr virus early antigen activation

Structure (SMILES) | Activity
CC(C)CC(=O)c1c(O)c(C=O)c(O)c2c1O[C@]1(C)C=C[C@@H](C(C)C)C[C@@H]1C2 | inactive
CC(C)CC(=O)c1c(O)c(C=O)c2c(c1O)C[C@H]1C[C@H](C(C)C)C=C[C@@]1(C)O2 | inactive
